Laboratory results: patent US8329706B2, “Oxazolidinone derivatives” (Actelion Pharmaceuticals Ltd., priority 2009, dated 2012)

Legend:
human orexin-2 receptor = biological target: T1, human orexin-2 receptor (Homo sapiens, UniProt O43614); assay: FLIPR intracellular calcium assay, orexin receptor antagonistic activity (OX2); type: cell-based; conditions: CHO cells expressing human orexin-2 receptor; agonist 3 nM orexin-A; normalized to on-plate reference; * geomean n = 5, *2 geomean n = 2
T1 construct: expressed in transfected cells; host or cells: CHO cells (G418 selection)
T1 sequence (O43614 1-444): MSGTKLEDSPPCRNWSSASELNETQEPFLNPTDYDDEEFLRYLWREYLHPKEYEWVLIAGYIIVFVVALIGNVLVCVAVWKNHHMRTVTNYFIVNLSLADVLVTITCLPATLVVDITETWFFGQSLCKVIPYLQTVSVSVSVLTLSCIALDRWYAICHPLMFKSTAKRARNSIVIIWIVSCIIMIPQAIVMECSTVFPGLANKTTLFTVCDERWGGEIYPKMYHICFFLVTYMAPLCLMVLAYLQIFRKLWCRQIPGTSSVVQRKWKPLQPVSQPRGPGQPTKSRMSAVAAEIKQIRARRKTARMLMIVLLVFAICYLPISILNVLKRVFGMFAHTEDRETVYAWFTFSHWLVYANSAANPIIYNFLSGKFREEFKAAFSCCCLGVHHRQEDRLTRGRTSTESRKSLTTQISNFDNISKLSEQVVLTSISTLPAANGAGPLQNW
Procedure: (§1) The orexin receptor antagonistic activity of the compounds of formula (I) is determined in accordance with the following experimental method.
(§2) Chinese hamster ovary (CHO) cells expressing the human orexin-1 receptor and the human orexin-2 receptor, respectively, are grown in culture medium (Ham F-12 with L-Glutamine) containing 300 μg/ml G418, 100 U/ml penicillin, 100 μg/ml streptomycin and 10% heat inactivated fetal calf serum (FCS). The cells are seeded at 20′000 cells/well into 384-well black clear bottom sterile plates (Greiner). The seeded plates are incubated overnight at 37° C. in 5% CO2.
(§3) Human orexin-A as an agonist is prepared as 1 mM stock solution in MeOH:water (1:1), diluted in HBSS containing 0.1% bovine serum albumin (BSA), NaHCO3: 0.375 g/l and 20 mM HEPES for use in the assay at a final concentration of 3 nM.
(§4) Antagonists are prepared as 10 mM stock solution in DMSO, then diluted in 384-well plates using DMSO followed by a transfer of the dilutions into in HBSS containing 0.1% bovine serum albumin (BSA), NaHCO3: 0.375 g/l and 20 mM HEPES. On the day of the assay, 50 μl of staining buffer (HBSS containing 1% FCS, 20 mM HEPES, NaHCO3: 0.375 g/l, 5 mM probenecid (Sigma) and 3 μM of the fluorescent calcium indicator fluo-4 AM (1 mM stock solution in DMSO, containing 10% pluronic) is added to each well. The 384-well cell-plates are incubated for 50 min at 37° C. in 5% CO2 followed by equilibration at rt for 30-120 min before measurement.
(§5) Within the Fluorescent Imaging Plate Reader (FLIPR Tetra, Molecular Devices), antagonists are added to the plate in a volume of 10 μl/well, incubated for 10 min and finally 10 μl/well of agonist is added. Fluorescence is measured for each well at 1 second intervals, and the height of each fluorescence peak is compared to the height of the fluorescence peak induced by 3 nM orexin-A with vehicle in place of antagonist. For each antagonist, the IC50 value (the concentration of compound needed to inhibit 50% of the agonistic response) is determined and normalized using the obtained IC50 value of a on-plate reference compound. Optimized conditions were achieved by adjustment of pipetting speed and cell splitting regime. The calculated IC50 values of the compounds may fluctuate depending on the daily cellular assay performance. Fluctuations of this kind are known to those skilled in the art.

human orexin-1 receptor = biological target: T2, human orexin-1 receptor (Homo sapiens, UniProt O43613); assay: FLIPR intracellular calcium assay, orexin receptor antagonistic activity (OX1); type: cell-based; conditions: CHO cells expressing human orexin-1 receptor; agonist 3 nM orexin-A; normalized to on-plate reference; * geomean n = 5, *2 geomean n = 2
T2 construct: expressed in transfected cells; host or cells: CHO cells (G418 selection)
T2 sequence (O43613 1-425): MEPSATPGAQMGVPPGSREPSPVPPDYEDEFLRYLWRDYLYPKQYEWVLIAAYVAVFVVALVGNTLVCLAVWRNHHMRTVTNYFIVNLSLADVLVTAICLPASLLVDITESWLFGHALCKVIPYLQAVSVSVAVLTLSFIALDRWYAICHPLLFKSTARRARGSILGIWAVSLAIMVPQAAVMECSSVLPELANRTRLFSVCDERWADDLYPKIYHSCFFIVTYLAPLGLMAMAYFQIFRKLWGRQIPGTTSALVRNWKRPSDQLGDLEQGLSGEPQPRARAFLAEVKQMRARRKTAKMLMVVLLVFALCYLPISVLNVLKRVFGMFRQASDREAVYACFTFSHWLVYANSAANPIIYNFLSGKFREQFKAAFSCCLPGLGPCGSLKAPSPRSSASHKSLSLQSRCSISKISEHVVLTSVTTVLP
Procedure: as §1, §2, §3, §4, §5

SMILES | IC50 (human orexin-2 receptor) [nM] | IC50 (human orexin-1 receptor) [nM]
CCOc1ccccc1C1OCC(=O)N1Cc1ccc(Cl)cc1Cl (centres unmarked) [Example 30, 3-(2,4-Dichloro-benzyl)-2-(2-ethoxy-phenyl)-oxazolidin-4-one] | 844 | 3050
CCOc1ccccc1C1OCC(=O)N1Cc1ccc(C)c(Cl)c1 (centres unmarked) [Example 31, 3-(3-Chloro-4-methyl-benzyl)-2-(2-ethoxy-phenyl)-oxazolidin-4-one] | 634 | 7600
COc1cccc(OC)c1C1OCC(=O)N1Cc1ccc(C(F)(F)F)cc1 (centres unmarked) [Example 32, 2-(2,6-Dimethoxy-phenyl)-3-(4-trifluoromethyl-benzyl)-oxazolidin-4-one] | 413 | > 10000
COc1cccc(OC)c1C1OCC(=O)N1Cc1ccc(OC(F)(F)F)cc1 (centres unmarked) [Example 34, 2-(2,6-Dimethoxy-phenyl)-3-(4-trifluoromethoxy-benzyl)-oxazolidin-4-one] | 298 | 6470
COc1cccc(OC)c1C1OCC(=O)N1Cc1cccc(OC(F)(F)F)c1 (centres unmarked) [Example 35, 2-(2,6-Dimethoxy-phenyl)-3-(3-trifluoromethoxy-benzyl)-oxazolidin-4-one] | 618 | 2890
COc1cccc(OC)c1C1OCC(=O)N1Cc1ccc(F)c(Cl)c1 (centres unmarked) [Example 36, 3-(3-Chloro-4-fluoro-benzyl)-2-(2,6-dimethoxy-phenyl)-oxazolidin-4-one] | 632 | 1340
COc1cccc(OC)c1C1OCC(=O)N1Cc1cc(C(F)(F)F)cc(Cl)c1F (centres unmarked) [Example 37, 3-(3-Chloro-2-fluoro-5-trifluoromethyl-benzyl)-2-(2,6-dimethoxy-phenyl)-oxazolidin-4-one] | 477 | 162
COc1cccc(OC)c1C1OCC(=O)N1Cc1ccc(F)c(C(F)(F)F)c1 (centres unmarked) [Example 38, 2-(2,6-Dimethoxy-phenyl)-3-(4-fluoro-3-trifluoromethyl-benzyl)-oxazolidin-4-one] | 730 | 1380
COc1cccc(OC)c1C1OCC(=O)N1Cc1ccc(Cl)c(F)c1 (centres unmarked) [Example 39, 3-(4-Chloro-3-fluoro-benzyl)-2-(2,6-dimethoxy-phenyl)-oxazolidin-4-one] | 795 | 4100
COc1cccc(OC)c1C1OCC(=O)N1Cc1c(C)cc(C)cc1C (centres unmarked) [Example 41, 2-(2,6-Dimethoxy-phenyl)-3-(2,4,6-trimethyl-benzyl)-oxazolidin-4-one] | 681 | 542
COc1cccc(OC)c1C1OCC(=O)N1Cc1ccc(Cl)cc1Cl (centres unmarked) [Example 42, 3-(2,4-Dichloro-benzyl)-2-(2,6-dimethoxy-phenyl)-oxazolidin-4-one] | 376 | 1490
COc1cccc(OC)c1C1OCC(=O)N1Cc1c(C)cccc1C (centres unmarked) [Example 44, 2-(2,6-Dimethoxy-phenyl)-3-(2,6-dimethyl-benzyl)-oxazolidin-4-one] | 467 | 1760
CCOc1ccccc1C1OCC(=O)N1Cc1ccccc1Cl (centres unmarked) [Example 45, 3-(2-Chloro-benzyl)-2-(2-ethoxy-phenyl)-oxazolidin-4-one] | 870 | 1740
CCOc1ccccc1C1OCC(=O)N1Cc1cc(Cl)ccc1Cl (centres unmarked) [Example 46, 3-(2,5-Dichloro-benzyl)-2-(2-ethoxy-phenyl)-oxazolidin-4-one] | 1520 | 788

Now those with a lower IC50 (human orexin-2 receptor), led by results:

IC50 (human orexin-2 receptor) [nM] | IC50 (human orexin-1 receptor) [nM] | SMILES
225 | > 10000 | COc1cccc(OC)c1C1OCC(=O)N1Cc1ccccc1OC(F)(F)F (centres unmarked) [Example 33, 2-(2,6-Dimethoxy-phenyl)-3-(2-trifluoromethoxy-benzyl)-oxazolidin-4-one]
151 | 5 | COc1cccc(OC)c1C1OC(C)(C)C(=O)N1Cc1ccc2ccccc2c1 (centres unmarked) [Example 57, 2-(2,6-Dimethoxy-phenyl)-5,5-dimethyl-3-naphthalen-2-ylmethyl-oxazolidin-4-one]
133 | 25 | COc1cccc(OC)c1C1OC(C)(C)C(=O)N1Cc1ccc(OC(F)(F)F)c(Cl)c1 (centres unmarked) [Example 58, 3-(3-Chloro-4-trifluoromethoxy-benzyl)-2-(2,6-dimethoxy-phenyl)-5,5-dimethyl-oxazolidin-4-one]
113 | 2990 | COc1cccc(OC)c1C1OCC(=O)N1Cc1ccc(OC(F)F)cc1 (centres unmarked) [Example 49, 3-(4-Difluoromethoxy-benzyl)-2-(2,6-dimethoxy-phenyl)-oxazolidin-4-one]
111 | 164 | COc1cccc(OC)c1C1O[C@H](C)C(=O)N1Cc1ccc(OC(F)(F)F)c(Cl)c1 (stereo partly drawn) [Example 56, 3-(3-Chloro-4-trifluoromethoxy-benzyl)-2-(2,6-dimethoxy-phenyl)-(R)-5-methyl-oxazolidin-4-one]
108 | 178 | COc1cccc(OC)c1C1O[C@H](C)C(=O)N1Cc1ccc(OC(F)(F)F)c(F)c1 (stereo partly drawn) [Example 55, 2-(2,6-Dimethoxy-phenyl)-3-(3-fluoro-4-trifluoromethoxy-benzyl)-(R)-5-methyl-oxazolidin-4-one]
99 | 1350 | COc1cccc(OC)c1C1OCC(=O)N1Cc1ccc(OC(F)(F)F)c(F)c1 (centres unmarked) [Example 48, 2-(2,6-Dimethoxy-phenyl)-3-(3-fluoro-4-trifluoromethoxy-benzyl)-oxazolidin-4-one]
81 | 1710 | CCCOc1ccc(CN2C(=O)COC2c2c(OC)cccc2OC)cc1 (centres unmarked) [Example 54, 2-(2,6-Dimethoxy-phenyl)-3-(4-propoxy-benzyl)-oxazolidin-4-one]
68 | 1180 | COc1cccc(OC)c1C1OCC(=O)N1Cc1ccc(Oc2ccccc2)cc1 (centres unmarked) [Example 47, 2-(2,6-Dimethoxy-phenyl)-3-(4-phenoxy-benzyl)-oxazolidin-4-one]
65 | 47 | COc1cccc(OC)c1C1O[C@H](C)C(=O)N1Cc1ccc2ccccc2c1 (stereo partly drawn) [Example 53, 2-(2,6-Dimethoxy-phenyl)-(R)-5-methyl-3-naphthalen-2-ylmethyl-oxazolidin-4-one]
58 | 28 | COc1cccc(OC)c1C1OC(C)(C)C(=O)N1Cc1ccc(Oc2ccccc2)cc1 (centres unmarked) [Example 50, 2-(2,6-Dimethoxy-phenyl)-5,5-dimethyl-3-(4-phenoxy-benzyl)-oxazolidin-4-one]
41 | 726 | COc1cccc(OC)c1C1O[C@H](C)C(=O)N1Cc1ccc(OC(F)F)cc1 (stereo partly drawn) [Example 52, 3-(4-Difluoromethoxy-benzyl)-2-(2,6-dimethoxy-phenyl)-(R)-5-methyl-oxazolidin-4-one]
29 | 198 | COc1cccc(OC)c1C1OCC(=O)N1Cc1ccc(OC(F)(F)F)c(Cl)c1 (centres unmarked) [Example 40, 3-(3-Chloro-4-trifluoromethoxy-benzyl)-2-(2,6-dimethoxy-phenyl)-oxazolidin-4-one]
25 | 220 | COc1cccc(OC)c1C1O[C@H](C)C(=O)N1Cc1ccc(Oc2ccccc2)cc1 (stereo partly drawn) [Example 51, 2-(2,6-Dimethoxy-phenyl)-(R)-5-methyl-3-(4-phenoxy-benzyl)-oxazolidin-4-one]
